AC50 data for 81 compounds are collected here from PubChem BioAssay AID463206 (Broad Institute, 2010).

Active and inactive are the calls of the source.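 Rule for the calls: active = caspase luminescence falls with dose and the half-maximal concentration AC50 from the fitted curve is at or below a set limit; inconclusive = flat fit at 30 to 70% signal loss, or invalid fit; inactive = AC50 above the limit, or signal rises instead.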 Where only a bound is given, the exact number is not on record here.

The subject of the experiment is INS-1E cytokine-induced caspase-3/7, Caspase-Glo luminescence, 48 h. Kind of experiment: inhibitors of cytokine-induced caspase-3/7 activity, dose response, orthogonal assay for beta-cell apoptosis protection project, INS-1E rat cells, luminescence (AID 463206).
One may read the AC50 as the midpoint of the concentration-response curve, whichever way the signal moves. For `COCCNC(=O)CSC1=N/C(=C/c2ccc(Cl)c(Cl)c2)C(=O)N1c1ccccc1F`, the AC50 is > 26 µM (inactive). On to `Cc1ccc(-c2nn(-c3ccccc3)cc2/C=C/C(=O)Nc2cccc(S(N)(=O)=O)c2)cc1`, for which the AC50 is > 26 µM (inactive). The same measure for `Cc1cc(C)n(-c2nc(NC(C)(C)C)nc(NC(C)(C)C)n2)n1`: > 26 µM (inactive); for `CCOC(=O)c1cnc(-n2nc(C)cc2C)nc1NNc1nc(-c2ccccc2)cc(-c2ccccc2)n1`: > 26 µM (inactive); for `COC(=O)c1c(C)oc2ccc(N(C(=O)c3ccncc3)S(=O)(=O)c3ccc4ccccc4c3)cc12`: > 26 µM (inactive). Regarding `O=C(Cc1ccc(Cl)cc1)c1c[nH]c(C(=O)NCc2cccnc2)c1`, the AC50 is > 26 µM (inactive). In the case of `O=C(Nc1cccc(NC(=O)c2ccccc2Cl)c1)c1ccc([N+](=O)[O-])o1`, the AC50 was > 26 µM (inactive).

`Cc1cc(C)c(S(=O)(=O)/N=C2/C=C(Sc3ncn[nH]3)C(=O)c3ccccc32)cc1C`: the AC50 is > 26 µM (inactive). For `Cc1sc2ncnc(N3CCN(S(=O)(=O)c4ccccc4)CC3)c2c1C` the value was > 26 µM (inactive).

`Cc1cc(OCc2nc(-c3ccc(NC(=O)c4cccnc4)cc3)no2)ccc1Cl`: the AC50 is > 26 µM (inactive).

Regarding `Cc1ccc(S(=O)(=O)NCc2ccncc2)cc1C`, the AC50 was > 26 µM (inactive). Take `COc1ccc2c(c1OC)C(=O)OC2Nc1nc(-c2ccccc2)cs1` (stereo unspecified): the half-maximal activity concentration (AC50) was 16.1 µM.

Take `O=C(Nc1cccc(C(F)(F)F)c1)Oc1ccc(Cl)c2cccnc12`: the AC50 was > 26 µM (inactive). On to `Cc1nc2ccccc2cc1OCc1ccc(F)cc1`, for which the AC50 is > 26 µM (inactive). In the case of `CCCOc1ccc(CSc2nc3ccccc3[nH]2)cc1`, the AC50 is > 26 µM (inactive). Turning to `Cc1nc2ccc(NC(=O)c3cc(S(=O)(=O)N(C)c4ccccc4)ccc3Cl)cc2s1`, the AC50 is > 26 µM (inactive). Take `C/C(=N\NC(=O)c1cc(C)nc2ccccc12)c1ccccn1`: the AC50 is > 26 µM (inactive). Regarding `CCC(/C=C1\Sc2ccc(OC)cc2N1CC)=C\c1sc2ccc(OC)cc2[n+]1CCCS(=O)(=O)[O-]`, the AC50 is > 26 µM (inactive). Regarding `N#CCC(=O)N/N=C/c1cc(-c2ccccc2)n(-c2ccc(Cl)cc2)c1-c1ccccc1`, the AC50 is > 26 µM (inactive). On to `COCC1CCCCN1C(=O)c1cc(COc2ccc3ncccc3c2)on1` (stereo unspecified), for which the AC50 is > 26 µM (inactive). `CC(C)OCCCNC(=S)N1CCC(C(=O)c2ccc(Cl)cc2)CC1`: the AC50 was > 26 µM (inactive). Take `c1ccc(/N=C2\N=C(Nc3ccccn3)c3ccccc32)nc1`: the AC50 was > 26 µM (inactive). The same measure for `CCCCC(=O)NC(c1ccc(N(C)C)cc1)c1ccc2cccnc2c1O` (stereo unspecified): > 26 µM (inactive); for `CC(Sc1nnc2c(n1)[nH]c1ccccc12)C(=O)N(C)C1CCCCC1` (stereo unspecified): > 12 µM (inactive); for `COc1cccc(/C=N/NC(=O)c2cc(-c3ccccn3)nc3ccccc23)c1O`: > 26 µM (inactive).

For the compound `CCN(CC)c1ccc(CNc2nc3ccccc3n2CCN2CCCCC2)cc1`, the AC50 is > 26 µM (inactive). With `CN(C)CCCN(C(=O)COc1ccc(Cl)cc1)c1nc2cc3c(cc2s1)OCO3`, the AC50 is > 26 µM (inactive). The same measure for `CCOC(=O)c1cnc2ccc(OCC)cc2c1N1CCN(c2ccccc2)CC1`: > 12 µM (inactive); for `CC1CCC(C(C)C)C(OC(=O)Cn2c(-c3ccc(Cl)cc3)[n+](C)c3ccccc32)C1` (stereo unspecified): > 26 µM (inactive). On to `O=C(N/N=C/c1cnc(N2CCCCC2)s1)c1ccc(C(F)(F)F)cc1`, for which the AC50 is > 26 µM (inactive). The same measure for `O=C(Oc1c(CN2CCOCC2)cc(Cl)c2cccnc12)c1ccccc1Br`: > 26 µM (inactive); for `CN(CC1CCCO1)S(=O)(=O)c1ccc(C(=O)Nc2nc(-c3ccccn3)cs2)cc1` (stereo unspecified): > 26 µM (inactive); for `Nc1nonc1-n1nnc(C(=O)N/N=C/c2cc(Br)ccc2O)c1CSC1=NCCS1`: > 26 µM (inactive). Turning to `Clc1ccc(C(Cn2ccnc2)OCc2csc3c(Cl)cccc23)c(Cl)c1` (stereo unspecified), the AC50 is > 26 µM (inactive).

Turning to `O=C(c1ccc([N+](=O)[O-])s1)N1CCN(c2cccc(Cl)c2)CC1`, the AC50 is > 26 µM (inactive). Regarding `COC(=O)C1=C(C)N(Cc2ccccc2)C(=NCc2cccc(Cl)c2)N[C@H]1c1cccc(F)c1`, the AC50 was > 26 µM (inactive). On to `COc1ccc(/C(C)=N/NC(=O)c2cccc(S(=O)(=O)N3CCCC3)c2)c(O)c1`, for which the AC50 was > 26 µM (inactive). On to `CC(=O)c1c(C)[nH]c(C(=O)CN2CCN(S(=O)(=O)c3ccccc3)CC2)c1C`, for which the AC50 was > 26 µM (inactive). Take `CN(C)C(=O)c1ccc(NC(=O)c2cccc(S(=O)(=O)N3CCCCCC3)c2)cc1`: the AC50 was > 26 µM (inactive). Consider `COc1ccccc1C(=O)Nc1nc2ccccc2[nH]1`, for which the AC50 is > 26 µM (inactive).

Turning to `CN(C1=C(NC(=O)c2ccccc2)C(=O)c2ccccc2C1=O)C1CCS(=O)(=O)C1` (stereo unspecified), the AC50 is > 26 µM (inactive).

Turning to `COc1ccc(CC(=O)Nc2ccncc2Cl)cc1`, the AC50 was > 26 µM (inactive). `O=C(Nc1nc(-c2ccccn2)cs1)c1ccc([N+](=O)[O-])o1`: the AC50 was > 26 µM (inactive). For `C=C(C)C(=O)OCC(O)COc1ccc(C(C)(C)c2ccc(OCC(O)COC(=O)C(=C)C)cc2)cc1` (stereo unspecified) the value was > 26 µM (inactive). Turning to `CC[C@]1(c2ccccc2OC)ON(c2ccccc2C(F)(F)F)C1=O`, the AC50 is > 26 µM (inactive). For the compound `CCCCNC1=CC(=O)C(=O)c2ccccc21`, the AC50 is > 26 µM (inactive). Consider `CCCCNc1c(-c2ccc(OC)c(SC(C)CC)c2)nc2ccc(C)cn12` (stereo unspecified), for which the AC50 is > 26 µM (inactive).

Regarding `Oc1c(C(Nc2ccccn2)c2cccnc2)cc(Cl)c2cccnc12` (stereo unspecified), the AC50 was > 26 µM (inactive).

Take `CC(=O)NC(c1cccc([N+](=O)[O-])c1)c1ccc2cccnc2c1O` (stereo unspecified): the AC50 was > 26 µM (inactive). With `COc1cnc(-c2ccccn2)nc1Oc1ccc(Cl)c2ccccc12`, the AC50 is > 26 µM (inactive). For `CC(=O)Nc1ccc(S(=O)(=O)N2c3ccccc3NC(=O)CC2C)c(Cl)c1` (stereo unspecified), the AC50 is > 26 µM (inactive). In the case of `N#CC(c1cccc(Cl)c1)c1ccc2c(C(F)(F)F)cc(C(F)(F)F)nc2n1` (stereo unspecified), the AC50 is > 26 µM (inactive). The same measure for `O=C(Nc1ccc(F)cc1)Nc1cc(OCC(F)(F)F)cc(OCC(F)(F)F)c1`: > 26 µM (inactive). As for `COc1cccc(/C=N\NC(=O)c2ccc(Cn3cc(Br)c([N+](=O)[O-])n3)o2)c1O`, the AC50 was > 26 µM (inactive). Turning to `COc1ccc(N2CC(C(=O)N3CCN(c4ccccc4F)CC3)CC2=O)cc1` (stereo unspecified), the AC50 was > 26 µM (inactive). As to `O=[N+]([O-])/C=C/c1ccc2c(ccn2Cc2ccccc2)c1`, the AC50 is > 26 µM (inactive). With `Cc1cc(C)n(Cc2ccc(NC(=O)c3ccc(COc4ccccc4Br)cc3)cc2)n1`, the AC50 is > 26 µM (inactive).

With `Cc1ccc2oc(-c3ccc(NC(=O)c4cccnc4)cc3)nc2c1`, the AC50 is > 26 µM (inactive).

For the compound `COc1cc(C(=O)Oc2c(CN3CCOCC3)cc(Cl)c3cccnc23)cc(OC)c1OC`, the AC50 was > 26 µM (inactive). As to `COc1cccc(/C=N/NC(=O)CN2CC(c3ccccc3)CC2=O)c1O` (stereo unspecified), the AC50 is > 26 µM (inactive). For `C#CCOCCOCCOCCNc1nc(N2CCN(C(=O)CCCCCCCCCCNC(=O)[C@H]([C@@H](C)CC)n3cc(CCCCN=C(N)N)nn3)CC2)nc(N2CCN(C(=O)CCCCCCCCCCNC(=O)[C@H](CO)n3cc(CCCCCN)nn3)CC2)n1` the value was > 26 µM (inactive); for `Oc1ccc(-[n+]2c(-c3ccccc3)cc(-c3ccccc3)cc2-c2ccccc2)cc1`, > 26 µM (inactive); for `Cc1ccc(-c2csc(NC(=O)c3c(C)noc3C)n2)s1`, > 26 µM (inactive).

On to `Cc1ccccc1NC(=O)/C=C/c1ccc([N+](=O)[O-])s1`, for which the AC50 is > 26 µM (inactive). The same measure for `N#CC1=C(N)Oc2c(ccc3cccnc23)C1c1ccccc1` (stereo unspecified): > 12 µM (inactive); for `Cc1ccc(S(=O)(=O)/N=C2\C=C(Nc3cccc(C(=O)O)c3)C(=O)c3ccccc32)c(C)c1`: > 26 µM (inactive).

As to `Cc1ccc(-c2nc(C(Cl)Cl)c3ccccc3n2)cc1`, the AC50 is 2.66 µM. `O=C(c1cc(-c2cccc(Cl)c2)nc2ccccc12)N1CCN(c2ccccn2)CC1`: the AC50 is > 26 µM (inactive).

In the case of `CCOC(=O)c1sc(NC(=O)c2c(C)nn(Cc3ccccc3)c2C)cc1C`, the AC50 was > 26 µM (inactive). The same measure for `COc1ccc2c(c1)N(C)/C(=C/c1cccc[n+]1C)S2`: > 26 µM (inactive); for `COc1ccc(C)cc1Nc1n[n+](-c2ccccc2)c(-c2ccc(N(C)C)cc2)s1`: > 26 µM (inactive); for `COC(=O)c1ccccc1NC(=O)c1nc(S(=O)(=O)Cc2ccccc2)ncc1Cl`: > 26 µM (inactive). For `Cc1[nH]n(-c2ccc(Br)cc2)c(=O)c1/C=N/NC(=O)c1ccccc1` the value was > 26 µM (inactive); for `CCO[C@H]1OC(C(=O)N2CCN(Cc3ccc4c(c3)OCO4)CC2)=C[C@@H](c2csc3ccccc23)[C@@H]1CCCO`, > 26 µM (inactive); for `Cc1ccc2c(c1)N(C(=O)CCC(=O)NCCCN1CCC(Cc3ccccc3)CC1)CCO2`, 10.8 µM.

Turning to `Cc1ccccc1/C=N/Nc1ccnc2cc(Cl)ccc12`, the AC50 is > 26 µM (inactive). As to `O=C(NCc1ccncc1)c1cc(-c2ccc(Cl)cc2)oc1C(F)(F)F`, the AC50 is > 12 µM (inactive). Consider `COc1ccc(-c2c[n+]3c4n2CCCCC4=C(c2ccc(Br)cc2)C3)cc1`, for which the AC50 was > 26 µM (inactive). The same measure for `O=C1c2ccc3c4c(ccc(c24)C(=O)N1c1cccc(O)c1)C(=O)N(c1cccc(O)c1)C3=O`: > 26 µM (inactive). In the case of `CCN(C1CCCCC1)S(=O)(=O)c1ccc(S(=O)(=O)NCc2ccncc2)cc1`, the AC50 was > 26 µM (inactive). The same measure for `Fc1ccc(C[n+]2c(-c3ccccc3)cc(-c3ccccc3)cc2-c2ccccc2)cc1`: > 26 µM (inactive).
